# From article PMC7179297, “Preclinical Antimalarial Combination Study of M5717, a Plasmodium falciparum Elongation Factor 2 Inhibitor, and Pyronaridine, a Hemozoin Formation Inhibitor” (Antimicrobial Agents and Chemotherapy, 2020)
# Where “and” joins values, the source holds several entries; their conditions need not be identical. Equal entries are not always repeated. Marks after values point to notes of the source that are not given here.
# Tests used:
# [1] = test system: P. falciparum NF54 strain; assay: [3H]hypoxanthine incorporation assay, individual drugs; format: cell-based; settings: Plasmodium falciparum, 72 h
# Protocol: IC50 and drug interaction studies were performed as previously described ([27], [28]). […] Cultures were harvested onto glass fiber filters, washed, and the radioactivity was counted using a MicroBetaplate liquid scintillation counter and recorded as counts per minute (cpm) per well. Results are expressed as a percentage of the untreated controls (see the supplemental material for more details). page 2: 25 In vitro isobolograms 26 Compounds were tested against intraerythrocytic forms of P. falciparum derived from asynchronous stock cultures 27 of lab strain NF54 (Schiphol airport strain of unknown origin), as previously described.i,ii The culture medium was […] 29 mM HEPES, 25 mM NaHCO3 (pH 7.3), 0.36 mM hypoxanthine and 100 μg/mL neomycin. Human type A+ 30 erythrocytes served as host cells. […] 31 in humidified modular chambers. Testing of the individual drugs was carried out in 96-well microtiter plates. The 32 compounds were dissolved in DMSO (10 mg/mL), prediluted in hypoxanthine-free culture medium and titrated in […] After addition of an equal volume of parasite culture with a parasitemia of […] Parasite growth was measured by the incorporation of radiolabelled [3H]hypoxanthine (0.25 µCi in […] 37 assay duration) prior to the termination of the test. Cultures were harvested onto glass-fiber filters and washed with 38 distilled water. The radioactivity was counted using a MicroBetaplate liquid scintillation counter (Wallac, Zürich, 39 Switzerland) and the results recorded as counts per minute (cpm) per well at each drug concentration and expressed 40 as percentage of the untreated controls. Fifty percent inhibitory concentrations (IC50) were determined by linear 41 interpolation.v 42 43 For data interpretation, the IC50s of the drugs in combination were expressed as fractions of the IC50s of the drugs 44 alone. These fractions were called “Fractional Inhibitory Concentrations” (FIC) for drug A and for drug B, 45 respectively. 46 FIC Drug A = IC50 A (B) IC50 A […] 49 50 Formulation 51 Pyronaridine (tetraphosphate salt) and […] (succinate salt) were solubilized in a vehicle consisting of 70% […] 54 55 2
# [2] = test system: P. falciparum Pf3D70087/N9; assay: Murine P. falciparum SCID model, efficacy and recrudescence; format: in vivo, Plasmodium falciparum; settings: for Parasitemia Day 3: day 3 = day of treatment
# Protocol: Compound efficacy was assessed in the murine P. falciparum SCID model essentially as described by Jimenez-Díaz et al. ([20]). Briefly, alone or in combination, M5717 (succinate salt by Merck KGaA [MSC2576186-B4]) and pyronaridine (tetraphosphate salt, Sigma-Aldrich [P0049]) were formulated in 7% Tween80, 3% ethanol and administered to a cohort of age-matched female immunodeficient NOD-scid IL-2Rγ^null mice (Jackson Laboratory, Bar Harbor, ME). These mice had been previously engrafted with human erythrocytes (generously provided by the blood bank in Zürich, Switzerland). Prior to compound treatment, mice were intravenously infected with 2 × 10^7 P. falciparum Pf3D7^0087/N9 -infected erythrocytes (day 0) ([30]). On day 3 after infection, mice, in groups of 2 to 5, were randomly allocated to treatments that were administered with a single oral gavage at 10 ml/kg (Table 2 and Fig. 2). Parasitemia was measured by microscopy. Chimerism was monitored by flow cytometry using an anti-murine erythrocyte TER119 monoclonal antibody (Pharmingen, San Diego, CA) and SYTO-16 and then analyzed by flow cytometry in serial blood samples (2 μl) collected every 2 to 3 days until the completion of the experiment (Table 2, day 60 and Fig. 2, day 80). Parasite recrudescence was detected by microscopy. Once parasitemia exceeded 0.5%, then 100 to 500 μl of blood was collected and stored at –80°C for subsequent sequence analysis. Animals received a second treatment with the same dose and if applicable the same combination of compounds as previously administered in that dose group (Fig. 2). Efficacy was again monitored by microscopy. If recrudescence occurred again then new blood samples were stored at –80°C.
# Time-to-recrudescence data were analyzed using the Kaplan-Meier method. Log-rank test was performed for two-group comparisons. Kaplan-Meier curves and log-rank test P values, as well as median estimates for time to recrudescence, are presented (SAS, Version 9.4. Cary, NC: SAS Institute Inc.; 2014).
# [3] = M5717 3 mg/kg single oral dose (entry 1)
# [4] = M5717 6 mg/kg single oral dose (entry 2)
# [5] = M5717 12 mg/kg single oral dose (entry 3)
# [6] = M5717 30 mg/kg single oral dose (entry 4)
# [7] = pyronaridine 6 mg/kg single oral dose (entry 5)
# [8] = pyronaridine 12 mg/kg single oral dose (entry 6)
# [9] = pyronaridine 12 mg/kg single oral dose (entry 6), LLQ <0.01%
# [10] = pyronaridine 36 mg/kg single oral dose (entry 7)
# [11] = pyronaridine 36 mg/kg single oral dose (entry 7), LLQ <0.01%
compound,measurement,setting,value
O=C(NCCN1CCCC1)c1cc(-c2ccc(CN3CCOCC3)cc2)nc2ccc(F)cc12 [M5717],EC50,[1],0.3 nM
same,Parasitemia Day 4,[2]; [3],0.65%
same,Parasitemia Day 5,[2]; [3],0.49%
same,Parasitemia Day 6,[2]; [3],0.19%
same,Mean DoR (day of recrudescence),"[2]; M5717 3 mg/kg single oral dose (entry 1), uncorrected",6 days postinfection
same,Parasitemia Day 3,[2]; [3],1.2%
same,Parasitemia Day 4,[2]; [4],1.4%
same,Parasitemia Day 5,[2]; [4],1.03%
same,Parasitemia Day 6,[2]; [4],0.46%
same,Mean DoR (day of recrudescence),"[2]; M5717 6 mg/kg single oral dose (entry 2), uncorrected",17 days postinfection
same,Parasitemia Day 3,[2]; [4],1.26%
same,mice in which resistance evolved,[2]; M5717 12 mg/kg arm,5/5
same,Parasitemia Day 4,[2]; [5],0.58%
same,Parasitemia Day 5,[2]; [5],0.53%
same,Parasitemia Day 6,[2]; [5],0.11%
same,Mean DoR (day of recrudescence),"[2]; M5717 12 mg/kg single oral dose (entry 3), uncorrected",24 days postinfection
same,Parasitemia Day 3,[2]; [5],0.81%
same,median time to recrudescence,"[2]; M5717 12 mg/kg single oral dose, all mice n = 5, Kaplan-Meier, 12 mg/kg",19 days
same,day postinfection at which LLQ was reached,"[2]; M5717 12 mg/kg single oral dose, n = 5 (Fig. 2A)",8 days
same,median time to recrudescence,"[2]; M5717 12 mg/kg, mice showing no response to retreatment (M1, M2, M3, n = 3)",18 days
same,response to retreatment with the same dosing regimen,"[2]; M5717 12 mg/kg, mice with early recrudescence (D17, D18, D19)",not susceptible
same,response to retreatment with the same dosing regimen,"[2]; M5717 12 mg/kg, mice with later recrudescence (D23, D24)",responded partially
same,median time to recrudescence,"[2]; M5717 12 mg/kg, mice with later recrudescence (M4 and M5, n = 2)",23.5 days
same,Parasitemia Day 4,[2]; [6],0.73%
same,Parasitemia Day 5,[2]; [6],0.54%
same,Parasitemia Day 6,[2]; [6],0.21%
same,Mean DoR (day of recrudescence),"[2]; M5717 30 mg/kg single oral dose (entry 4), uncorrected",24 days postinfection
same,Parasitemia Day 3,[2]; [6],0.89%
same,Parasitemia for the individual mice at blood draw,"[2]; M5717 1x30 mg/kg single oral dose, recrudescent samples 1.1 and 1.2",3.25% and 0.50%
same,Recrudescence day post infection,"[2]; M5717 1x30 mg/kg single oral dose, samples 1.1 and 1.2",24
same,breakpoint between both phases of biphasic clearance of parasitemia,"[2]; M5717 alone at 3, 6, 12 and 30 mg/kg",around 48 h
COc1ccc2nc3cc(Cl)ccc3c(Nc3cc(CN4CCCC4)c(O)c(CN4CCCC4)c3)c2n1 [pyronaridine],EC50,[1],3.5 nM
same,Parasitemia Day 4,[2]; [7],0.09%
same,Parasitemia Day 5,[2]; [7],0.01%
same,Parasitemia Day 6,"[2]; pyronaridine 6 mg/kg single oral dose (entry 5), LLQ <0.01%",0.00^d %
same,Parasitemia Day 3,[2]; [7],0.89%
same,Parasitemia Day 4,[2]; [8],0.13%
same,Mean DoR (day of recrudescence),"[2]; pyronaridine 12 mg/kg single oral dose (entry 6), uncorrected",35 days postinfection
same,Parasitemia Day 5,[2]; [9],0.00^d %
same,Parasitemia Day 6,[2]; [9],0.00^d %
same,Parasitemia Day 3,[2]; [8],1.51%
same,Parasitemia Day 4,[2]; [10],0.12%
same,Parasitemia Day 5,[2]; [11],0.00^d %
same,Parasitemia Day 6,[2]; [11],0.00^d %
same,Parasitemia Day 3,[2]; [10],1.61%
same,Mean DoR (day of recrudescence),"[2]; pyronaridine 36 mg/kg single oral dose (entry 7), experiment ended at day 60 with parasitemia <0.01%",≥60^e days postinfection
